Assay results from ChEMBL document CHEMBL5154941, “Structural Modifications of Nimodipine Lead to Novel PDE1 Inhibitors with Anti-pulmonary Fibrosis Effects” (J Med Chem, 2022).

Legend:
[1] = target: Dual specificity calcium/calmodulin-dependent 3',5'-cyclic nucleotide phosphodiesterase 1C (Homo sapiens, UniProt Q14123); assay: Inhibition of PDE1C (147 to 531 residues) (unknown origin) expressed in Escherichia coli BL21 using [3H]-cGMP as substrate measured for 15 mins by liquid scintillation counter method
Homo sapiens = organism: Homo sapiens; assay: Selectivity ratio of IC50 for PDE4D (unknown origin) expressed in Escherichia coli BL21 to IC50 for PDE1C (147 to 531 residues) (unknown origin) expressed in Escherichia coli BL21

Chain of Dual specificity calcium/calmodulin-dependent 3',5'-cyclic nucleotide phosphodiesterase 1C (Q14123 whole entry, the tested form may be a part): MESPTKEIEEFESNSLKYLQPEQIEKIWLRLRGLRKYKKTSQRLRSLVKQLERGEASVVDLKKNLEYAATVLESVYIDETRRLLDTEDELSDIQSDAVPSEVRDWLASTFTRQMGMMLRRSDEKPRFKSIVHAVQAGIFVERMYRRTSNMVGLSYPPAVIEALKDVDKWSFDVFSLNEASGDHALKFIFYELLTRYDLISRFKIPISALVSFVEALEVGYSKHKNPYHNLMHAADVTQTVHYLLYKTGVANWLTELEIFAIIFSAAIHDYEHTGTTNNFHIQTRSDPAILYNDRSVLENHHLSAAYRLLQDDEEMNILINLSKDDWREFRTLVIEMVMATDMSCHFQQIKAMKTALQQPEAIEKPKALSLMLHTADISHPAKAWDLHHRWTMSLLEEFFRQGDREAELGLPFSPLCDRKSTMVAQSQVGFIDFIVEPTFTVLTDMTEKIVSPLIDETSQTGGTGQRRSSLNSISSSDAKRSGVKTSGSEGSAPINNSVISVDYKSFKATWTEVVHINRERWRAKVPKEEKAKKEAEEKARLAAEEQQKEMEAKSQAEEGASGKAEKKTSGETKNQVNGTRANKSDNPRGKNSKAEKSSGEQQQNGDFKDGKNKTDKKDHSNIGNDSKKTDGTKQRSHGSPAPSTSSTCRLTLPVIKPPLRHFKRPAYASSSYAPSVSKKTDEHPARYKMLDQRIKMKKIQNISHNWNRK

Row | IC50 [1] | Ratio IC50 (Homo sapiens) | Structure (SMILES)
1 | 1240 nM | 5.8 | COCCOC(=O)C1=C(C)NC(C)=C(C(=O)OC(C)C)C1c1cccc([N+](=O)[O-])c1 (stereo not drawn) [NIMODIPINE]
2 | 189 nM |  | CC1=C(C(=O)OCc2cncs2)C(c2ccc3c(cnn3C)c2)C(C(=O)OCc2cncs2)=C(C)N1
